Patent publication US20090181010A1, “Arginase II: a target for the prevention of atherosclerosis” (The Johns Hopkins University, priority 2006, published 2009)
Numbered stars: 1 amine (or outer) side, 2 acyl side, 3 side chain; on linkers, the order of the positions; unused ones are H or OH. Bridge positions count the residues as written; N and C are the ends. Square brackets hold non-standard residues; d marks the D form. Peptide text beside a SMILES is read from it. I, II: the chains in the order shown. Actinocin(9to1) = Cc1c2oc3c(C)ccc(C(=O)[*:1])c3nc-2c(C(=O)[*:2])c(N)c1=O; NMeV = CN[C@H](C(=O)O)C(C)C; Sar = CNCC(=O)O

Assays:
NO production [1] = assay: Aortic NO production (griess method) in Apo E knockout mice; assay type: in vivo; conditions: Apo E KO mice, BEC treated
Apo E knockout mice = assay: Aortic pulse wave velocity (vascular stiffness) in Apo E knockout mice; assay type: in vivo; conditions: Apo E KO mice, HC diet
Excerpt: (§1) FIGS. 8A-B Arginase inhibition decreases vascular stiffness and restores endothelial function in Apo E knockout mice. 16 WT mice were randomized to receive a normal or high cholesterol (HC) diet. […] Aortic Pulse wave velocity (PWV) (measured by 20 MHz pulsed Doppler from arch to abdominal aorta (4 cm) was used to measure vascular stiffness before and after pump implanatation.

NO production [2] = assay: NO production in rat aortic rings; conditions: rat aortic rings E+, pre-incubation with BEC
Description: FIGS. 7A-B depict arginase dependent endothelial dysfunction in OxLDL treated rat aorta. Arginase inhibition restores endothelial function and increases NO production in rat aortic rings. […] The increase in arginase activity was blocked by preincubation with BEC ([…], *p=0.0007, **p<0.0001 vs. untreated control; #p=0.0003 vs. OxLDL; n=5).
(§2) NO was estimated as nitrate/nitrite (NOx) by Griess reaction after conversion of nitrate to nitrite by nitrate reductase, using the Nitric Oxide Assay Kit (Calbiochem). The concentration of NOx from cell lysates was expressed as nmol/mg proteins.

arginase [3] = assay: Arginase activity in rat aortic rings; conditions: rat aortic rings E+, preincubation with BEC
Description: (§3) Cell lysates were prepared with lysis buffer (50 mM Tris-HCl, pH7.5, 0.1 mM EDTA and protease inhibitors) by brief vigorous vortexing for 30 min and incubation and centrifuging for 20 min at 14,000 g at 4° C. The supernatants are used for arginase activity as described previously^18. Arginase activity from aortic vessels was assayed as described above following homogenization in lysis buffer.

arginase [4] = assay: Aortic arginase activity in Apo E knockout mice; assay type: in vivo; conditions: Apo E KO mice, BEC treated
Description: as §1, §3

human arginase II = biological target: T1, human arginase II (Homo sapiens, UniProt P78540); conditions: cited from earlier work
T1 sequence (P78540 23-354): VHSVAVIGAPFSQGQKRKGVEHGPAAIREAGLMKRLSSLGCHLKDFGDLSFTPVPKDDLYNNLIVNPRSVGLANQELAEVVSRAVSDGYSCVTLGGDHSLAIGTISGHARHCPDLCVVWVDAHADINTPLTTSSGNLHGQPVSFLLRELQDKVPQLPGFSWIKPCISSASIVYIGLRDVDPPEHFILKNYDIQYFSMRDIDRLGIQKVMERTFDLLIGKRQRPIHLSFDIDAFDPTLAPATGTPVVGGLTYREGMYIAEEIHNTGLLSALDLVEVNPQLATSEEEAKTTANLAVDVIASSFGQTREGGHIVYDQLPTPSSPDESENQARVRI

NO production [5] = assay: NO measurement (NOx, Griess reaction) in HAECs; assay type: cell-based, human
Description: (§4) Human aortic endothelial cells (HAECs) were purchased from Cascade Biologics (Portland, Oreg.) and maintained in Medium M200 containing low serum growth supplement according to the supplier's protocol. Confluent HAECs were incubated with starvation medium (M200 plus only 0.5% fetal bovine serum) for 24 hr prior to the experimental protocols.
as §2

arginase II [6] = assay: Quantitative PCR of arginase II expression in HAECs; assay type: cell-based, human; conditions: HAEC
Description: Total RNA from Ox-LDL-stimulated HAEC was prepared using Trizol Reagent according to the supplier's protocol (Gibco). To exclude contamination with genomic DNA, total RNA was treated with RNase-free DNase (Roche). PCR reaction was performed in iCycler optical system (Bio-rad) using SYBR green PCR master mix. The reverse transcriptional PCR primers are as follows: Arginase I: Forward 5′-GGC AAG GTG GCA GAA GTC A-3′, Reverse 5′-TGGTTGTCAGTGGAGTGTTG-3′, size of PCR products=163 bp; Arginase II: Forward 5′-CTATCAGCACTGGATCTTGTTG-3′, Reverse 5′-GGGAGTAGGAAGTTGGTCATAG-3′, size of PCR products=156 bp. 18S rRNA gene (Forward 5′-CGGCGACGACCCATTCGAAC-3′, Reverse 5′-GAATCGAACCCTGATTCCCCGTC-3′, size of PCR product=99 bp) was amplified as a control.

arginase [7] = assay: Arginase activity assay in HAEC lysates; assay type: cell-based, human
Description: as §4, §3

arginase II [8] = assay: Western blot of arginase II protein in HAECs; assay type: cell-based, human; conditions: HAEC, cycloheximide 10 μM co-incubation
Description: Transient transfection of arginase-SiRNA (Santa Cruz Biotechnology) was performed with Oligofectamine reagent according to instructions provided by the supplier (Invitrogen). In brief, 8 μL of Oligofectamine was added to 17 μL Opti-MEM I reduced serum medium (Gibco), incubated for 5 minutes at room temperature, mixed with 180 μL Opti-MEM medium containing different amount of SiRNA, and further incubated for 15 minutes. The SiRNA-Oligofectamine complex was then overlaid on cells (each well of a 6 well culture dish). After incubation for 6 h, endothelial growth medium containing 3 times serum was added for making normal growth medium of 1× serum concentration. Transfected cells were then further incubated for 36 hr and starved for 24 hr prior to experiments and then stimulated with OxLDL for additional 6 hours.
Cells were lysed in SDS sample buffer (62.5 mM Tris, pH6.8, 2% SDS, and 10% Glycerol) and then sonicated for 5 s to reduce sample viscosity. Each sample was resolved by 10% SDS-PAGE, transferred to PVDF membrane (Bio-rad), analysed with antibodies according to the supplier's protocol, and visualized with peroxidase and an enhanced-chemiluminescence system (Pierce). Normalization was performed using the anti-β-tubulin antibody (BD bioscience, 1:1,000). Densitometric analysis of bands was performed with NIH ImageJ program.

HAECs = assay: Immunofluorescence of arginase II and beta-tubulin in HAECs; assay type: cell-based, human; conditions: HAEC, nocodazole 50 μM, 30 minutes
Description: HAECs were cultured on coverslips coated with 25 µg/ml human plasma fibronectin (Invitrogen). Cells were then fixed and permeabilized with 3% paraformaldehyde and 0.5% Triton X-100 in PBS for 2 minutes, followed by 20 minutes of 3% paraformaldehyde alone. Samples were prepared for immunofluorescence analysis by incubating with a rabbit polyclonal antisera against arginase II (Santa Cruz Biotechnology, 1:50) and a mouse monoclonal antibody against β-tubulin (BD Biosciences, 1:50) for 30 minutes at 37° C. They were then rinsed in tris-buffered saline and incubated with Cy5-conjugated anti-rabbit IgG and Cy3-conjugated anti-mouse IgG (Chemicon, Temecula, Calif.). Images were acquired using a Nikon TE-200 epifluorescence microscope (with a 60× objective, and collected using Openlab software (Improvision, Lexington, Mass.) and an internally cooled 12-bit CCD camera (CoolsnapHQ, Photometrics, Tucson, Ariz.).

## N[C@@H](CSCCB(O)O)C(=O)O [BEC, S-(2-boronoethyl)-L-cysteine]
NO production [1]
  aortic NO production: restoration of NO production to WT
Apo E knockout mice; BEC group, before pump implantation
  Aortic pulse wave velocity (PWV): 4.9±0.22 m/sec
Apo E knockout mice; after 4 weeks BEC (1 mg/mice) by osmotic infusion pump
  Aortic pulse wave velocity (PWV): 4.0±0.25 m/sec
NO production [2]
  vascular NO production following OxLDL treatment: increased vascular NO production
Arginase [3]
  OxLDL-induced increase in arginase activity: blocked
Arginase [4]
  aortic arginase activity: significant decrease
Human arginase II
  Ki: 210 nM
NO production [5]; BEC alone, no OxLDL
  effect on HAEC NOx production: no effect
NO production [5]; HAEC, BEC 10 μmol/L, all time points from 4 hrs
  prevention of OxLDL-dependent decrease in NO: prevents
NO production [5]; HAEC, OxLDL 50 μg/ml + BEC 10 μmol/L, 4 hrs
  NOx production, OxLDL+BEC vs. control: 102%
NO production [5]; HAEC, OxLDL + BEC 10 μmol/L, 4 hrs, control 14.24±0.95
  NOx production: 14.58±0.94 nmol/mg proteins

## Cc1c2oc3c(C)ccc(C(=O)N[C@@H]4C(=O)N[C@H](C(C)C)C(=O)N5CCC[C@H]5C(=O)N(C)CC(=O)N(C)[C@@H](C(C)C)C(=O)O[C@@H]4C)c3nc-2c(C(=O)N[C@@H]2C(=O)N[C@H](C(C)C)C(=O)N3CCC[C@H]3C(=O)N(C)CC(=O)N(C)[C@@H](C(C)C)C(=O)O[C@@H]2C)c(N)c1=O [actinomysin D] (I: T[dV]P[Sar][NMeV] / II: T[dV]P[Sar][NMeV]; ester I:1-I:C, II:1-II:C; linker I:N-II:N via Actinocin(9to1))
Arginase II [6]; OxLDL 4 hrs + actinomysin D 10 μg/ml
  arginase II expression (quantitative PCR), relative to control 1.0±0.06: 1.1±0.15
Arginase II [6]; actinomysin D 10 μg/ml
  block of OxLDL-induced arginase II expression: completely blocked

## C/C(=C\c1csc(C)n1)[C@@H]1C[C@@H]2O[C@]2(C)CCC[C@H](C)[C@H](O)[C@@H](C)C(=O)C(C)(C)[C@@H](O)CC(=O)O1 [epothilone B]
Arginase [7]; OxLDL + epothilone B 0.1 μmol/L
  arginase activity: 73.55±2.82 μmol Urea/mg protein/min
NO production [5]; HAEC, OxLDL + epothilone B 0.1 μmol/L
  endothelial NO production: 8.05±0.47 nmol/mg proteins
NO production [5]; HAEC, epothilone B alone
  basal endothelial cell NOx: small but not statistically significant increase

## C[C@@H]1C[C@@H]([C@H](O)CC2CC(=O)NC(=O)C2)C(=O)[C@@H](C)C1 [cycloheximide]
Arginase II [8]
  block of OxLDL-induced arginase II protein increase: completely blocked

## COC(=O)Nc1nc2ccc(C(=O)c3cccs3)cc2[nH]1 [nocodazole]
Arginase [7]; nocodazole 5 μmol/L, control 40.4±7.63
  arginase activity: 100.7±11.17 μmol Urea/mg protein/min
Arginase [7]; nocodazole 50 μmol/L, control 40.4±7.63
  arginase activity: 134.3±0.28 μmol Urea/mg protein/min
Arginase [7]; nocodazole in combination with Ox-LDL
  arginase activity: 141.9±7.07 μmol Urea/mg protein/min
HAECs
  arginase II localization (immunofluorescence): diffuse arginase localization
NO production [5]; HAEC, nocodazole treatment
  NOS measurement: reciprocal decrease
